Source: patent US6720346B2, “Thiazole benzamide derivatives and pharmaceutical compositions for inhibiting cell proliferation” (Agouron Pharmaceuticals, Inc., priority 2001, dated 2004)
pIC50, pKi: −log10 of the molar value. Where a name gives a salt, the structure may show the parent alone.

Assays:
human CDK4/cyclin D3 = target: T1, human CDK4/cyclin D3 (Homo sapiens, UniProt P11802); experiment: Inhibition of CDK4/cyclin D retinoblastoma kinase activity (Ki; % inhibition); assay type: biochemical; details: for pKi: apparent Ki, CDK4/cyclin D3, Rb substrate
T1 construct: made in house; host or cells: insect cells co-infected with baculovirus vectors
T1 sequence (P11802 whole entry): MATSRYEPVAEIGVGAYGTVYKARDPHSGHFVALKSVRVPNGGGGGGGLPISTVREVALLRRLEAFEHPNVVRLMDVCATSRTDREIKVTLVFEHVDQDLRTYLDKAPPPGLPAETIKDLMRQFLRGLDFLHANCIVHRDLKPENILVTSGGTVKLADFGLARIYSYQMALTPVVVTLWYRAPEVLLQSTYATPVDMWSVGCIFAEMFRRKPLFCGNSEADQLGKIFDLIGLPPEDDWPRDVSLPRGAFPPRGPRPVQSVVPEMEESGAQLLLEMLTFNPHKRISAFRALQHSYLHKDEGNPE
T1 sequence (P30281 1-264 partner limits assumed): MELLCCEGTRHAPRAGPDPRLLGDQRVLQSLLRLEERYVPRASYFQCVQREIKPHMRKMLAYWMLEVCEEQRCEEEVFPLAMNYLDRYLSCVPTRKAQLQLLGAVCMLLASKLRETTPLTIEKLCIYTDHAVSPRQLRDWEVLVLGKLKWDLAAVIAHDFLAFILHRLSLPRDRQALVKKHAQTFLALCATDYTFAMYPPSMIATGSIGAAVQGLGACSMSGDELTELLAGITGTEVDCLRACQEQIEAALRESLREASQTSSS
How it was run: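 Insect-cell-expressed CDK4 with truncated cyclin D3 (1-264), 5 nM, phosphorylating His-tagged Rb fragment (386-928) with 25 μM [32/33P]ATP at pH 7.4, 30 °C, 20 min (60 min for tight binders). Filter capture, phosphorimager read; % inhibition at 30 nM compound, Ki from competitive or tight-binding fits.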

HCT-116 cell line = experiment: Inhibition of cell growth, MTT tetrazolium salt assay; assay type: cell-based; details: for pIC50: Homo sapiens, HCT-116, 120 h, MTT, three to five days
How it was run: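 Cells in McCoy's 5A medium were given 4 h before compound addition in 0.5% (v/v) DMSO, then incubated 3–5 days at 37 °C, 5% CO2. After 4 h with 0.2 mg/mL MTT, DMSO-solubilized formazan was read at 540 nm; 50% and 90% growth-inhibitory concentrations came from semi-log plots against vehicle controls.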

CDK2/cyclin A = target: T2, CDK2/cyclin A (Homo sapiens, UniProt P24941); experiment: Inhibition of CDK2/cyclin A retinoblastoma kinase activity (Ki; % inhibition); assay type: biochemical; details: for pKi: apparent Ki, CDK2/cyclin A, Rb substrate
T2 construct: made in house; host or cells: CDK2: insect cells (baculovirus); cyclin A: E. coli
How it was run: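 Radiometric filter assay of CDK2/proteolyzed cyclin A (baculovirus-expressed human CDK2, 10 or 19 nM) phosphorylating an Rb fragment with 25 μM [³²P/³³P]ATP in pH 7.4 HEPES, 2% DMSO, at 30 °C for 60 or 75 min under initial-rate conditions. Library compounds screened at 30 nM for % inhibition; apparent Ki from concentration series fit to competitive or tight-binding inhibition equations.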

[1] = HCT-116 cells, 0.25 μM compound

Structure (SMILES)	CDK4 % Inhibition at 0.03 μM (human CDK4/cyclin D3; at 0.03 μM)	CDK2 % Inhibition at 0.03 μM (CDK2/cyclin A; at 0.03 μM)	pKi (human CDK4/cyclin D3)	pIC50 (HCT-116 cell line)	pKi (CDK2/cyclin A)	HCT-116 % Inhibition at 0.25 μM (HCT-116 cell line; HCT-116, at 0.25 μM)	other results
CN1CCC[C@H]1CNC(=O)c1ccc(Nc2nc(N)c(C(=O)c3ccccc3F)s2)cc1 [Example A67, 4-{4-Amino-5-(2-fluoro-benzoyl)-thiazol-2-ylamino}-N-(1-methyl-pyrrolidin-2S-ylmethyl)-benzamide Trifluoroacetic Acid Salt]			7.06	7.11	7.89		
CN1CCN(C(=O)c2ccc(Nc3nc(N)c(C(=O)c4c(F)cccc4F)s3)cc2)CC1 [Example G2]	8%	−9%				51%	
Nc1nc(Nc2ccc(C(=O)N3CCC(O)(c4ccccc4)CC3)cc2)sc1C(=O)c1c(F)cccc1F [Example G202]							CDK4 % Inhibition at 0.03 μM (human CDK4/cyclin D3; 0.03 μM compound): 25%; HCT-116 % Inhibition at 0.1 μM (HCT-116 cell line; HCT-116 cells, 0.1 μM compound): 20%; HCT-116 % Inhibition at 0.25 μM (HCT-116 cell line; [1]): 48%; CDK2 % Inhibition at 0.03 μM (CDK2/cyclin A; 0.03 μM compound): 5%
Nc1nc(Nc2ccc(C(=O)Nc3ccc4[nH]ccc4c3)cc2)sc1C(=O)c1c(F)cccc1F [Example G227]							CDK4 % Inhibition at 0.03 μM (human CDK4/cyclin D3; 0.03 μM compound): 17%; HCT-116 % Inhibition at 0.1 μM (HCT-116 cell line; HCT-116 cells, 0.1 μM compound): 17%; HCT-116 % Inhibition at 0.25 μM (HCT-116 cell line; [1]): 84%; CDK2 % Inhibition at 0.03 μM (CDK2/cyclin A; 0.03 μM compound): 28%
CN(C(=O)c1ccc(Nc2nc(N)c(C(=O)c3c(F)cccc3F)s2)cc1)C1CCCCC1 [Example G187]	12%	−2%				48%	HCT-116 % Inhibition at 0.1 μM (HCT-116 cell line; HCT-116, at 0.1 μM): 16%
Cc1ccsc1C(=O)c1sc(Nc2ccc(C(=O)N[C@H](C)CN(C)C)cc2)nc1N [Example A62, 4-{4-Amino-5-[1-(3-methyl-thiophen-2-yl)-methanoyl]-thiazol-2-ylamino}-N-(2-dimethylamino-1R-methyl-ethyl)-benzamide Trifluoroacetic Acid Salt]			6.92	7.36	8.55		
CCCN(CCC)C(=O)c1ccc(Nc2nc(N)c(C(=O)c3c(F)cccc3F)s2)cc1 [Example G248]							CDK4 % Inhibition at 0.03 μM (human CDK4/cyclin D3; 0.03 μM compound): 17%; HCT-116 % Inhibition at 0.1 μM (HCT-116 cell line; HCT-116 cells, 0.1 μM compound): 13%; HCT-116 % Inhibition at 0.25 μM (HCT-116 cell line; [1]): 55%; CDK2 % Inhibition at 0.03 μM (CDK2/cyclin A; 0.03 μM compound): 8%
Nc1nc(Nc2ccc(C(=O)NC[C@@H]3CCCC[C@H]3O)cc2)sc1C(=O)c1c(F)cccc1F (relative stereo) [Example G350]							CDK4 % Inhibition at 0.03 μM (human CDK4/cyclin D3; 0.03 μM compound): 9%; HCT-116 % Inhibition at 0.1 μM (HCT-116 cell line; HCT-116 cells, 0.1 μM compound): 24%; HCT-116 % Inhibition at 0.25 μM (HCT-116 cell line; [1]): 41%; CDK2 % Inhibition at 0.03 μM (CDK2/cyclin A; 0.03 μM compound): 4%

Continued, in another order:

CDK4 % Inhibition at 0.03 μM (human CDK4/cyclin D3; at 0.03 μM)	CDK2 % Inhibition at 0.03 μM (CDK2/cyclin A; at 0.03 μM)	pKi (human CDK4/cyclin D3)	pIC50 (HCT-116 cell line)	pKi (CDK2/cyclin A)	Structure (SMILES)	HCT-116 % Inhibition at 0.25 μM (HCT-116 cell line; HCT-116, at 0.25 μM)	other results
13%	4%				CCOC(=O)CC(C)NC(=O)c1ccc(Nc2nc(N)c(C(=O)c3c(F)cccc3F)s2)cc1 (stereo not shown) [Example G117]	55%	HCT-116 % Inhibition at 0.1 μM (HCT-116 cell line; HCT-116, at 0.1 μM): 6%
		8.00	5.66	7.04	Nc1nc(Nc2ccc(C(=O)NCC3CCCCN3)cc2)sc1C(=O)c1c(F)cccc1F (stereo not shown) [Example A33, 4-[4-Amino-5-(2,6-difluoro-benzoyl)-thiazol-2-ylamino]-N-(piperidin-2RS-ylmethyl)-benzamide Trifluoroacetate Salt]		
16%	22%				Nc1nc(Nc2ccc(C(=O)N3CCC(O)C3)cc2)sc1C(=O)c1c(F)cccc1F (stereo not shown) [Example G55]	57%	
20%	25%				CC(NC(=O)c1ccc(Nc2nc(N)c(C(=O)c3c(F)cccc3F)s2)cc1)c1ccccc1 (stereo not shown) [Example G162]	84%	HCT-116 % Inhibition at 0.1 μM (HCT-116 cell line; HCT-116, at 0.1 μM): 3%
		7.31	5.80	6.54	CC(=O)N1CCC[C@H]1CNC(=O)c1ccc(Nc2nc(N)c(C(=O)c3c(F)cccc3F)s2)cc1 [Example A10, 4-[4-Amino-5-(2,6-difluoro-benzoyl)-thiazol-2S-ylamino]-N-(1-Acetyl-pyrrolidin-2S-ylmethyl)-benzamide]		
		7.80	6.72	6.64	CN(C)CCNC(=O)c1ccc(Nc2nc(N)c(C(=O)c3c(F)cccc3F)s2)cc1 [Example A4]		
